Assay results: patent EP4752152A1, “STEROID COMPOUND, AND PREPARATION METHOD THEREFOR AND USE THEREOF” (Cholesgen (Shanghai) Co.Ltd., priority 2023, dated 2025)
≈ marks a conversion by molar mass, not a printed value. Like-named read-outs stand apart in the source and are kept apart here.

Key:
SREBP pathway = assay: SREBP luciferase reporter gene system (SRE-luciferase assay); type: cell-based, human; settings: Homo sapiens, Huh-7, 16 h, Huh-7/SRE-luc cells, sterol-deficient medium, 0.01-10 µM
Outline: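 Readout was SRE-driven luciferase normalised to GFP fluorescence in lysates of stably transfected Huh-7/SRE-luc hepatoma cells. Compounds (0.01, 0.03, 0.1, 0.3, 1.0, 3.0, 10 µM; DMSO control) were applied for 16 h in sterol-depleted medium with 2 µM lovastatin and 10 µM mevalonate; IC50 from variable-slope fit.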

[1] = Metabolic stability experiment of mouse liver microsomes; type: in vitro ADME
Procedure: PB solution (100 mM), MgCl2 solution (300 mM), NADPH solution (2.04 mM), and mouse liver microsome (SHQY catalog number: M1000, batch number: 2110330) solution (1.00 mg/mL) were prepared respectively. […] Then, 100 µL of mouse liver microsome solution was added to a 96-well sample plate. For the 0 min sample, acetonitrile solution containing the internal standard was first added; then, 2 µL of 100 µM working solution was added; followed by the addition of 98 µL of pre-warmed 2.04 mM NADPH at 37°C. For the 5 min, 15 min, 30 min, 45 min, and 60 min samples, 2 µL of 100 µM working solution was first added; followed by the addition of 98 µL of pre-warmed 2.04 mM NADPH at 37°C to initiate the reaction; upon reaching the respective time points, a solution of acetonitrile containing the internal standard was added to terminate the reaction. For the NCF60 sample, 2 µL of 100 µM working solution was first added; followed by the addition of 98 µL of pre-warmed PB at 37°C to initiate the reaction; upon reaching the respective time points, a solution of acetonitrile containing the internal standard was added to terminate the reaction. During the experiment, all samples were incubated in a 37°C water bath. All samples were shaken on an oscillator at 800 rpm for 10 min, then centrifuged at 3200 g for 20 min. The supernatant was aspirated, diluted with deionized water at the corresponding ratio, and analyzed by LC-MS/MS. The remaining percentage of the compound at each time point was obtained by dividing the peak area ratio of the compound at 5, 15, 30, 45, and 60 min by the peak area ratio at 0 min. The half-life (T1/2) of the compound was then calculated using Excel. Table 2: Mouse liver microsome stability results of compounds from some examples

[2] = Solubility in fasted-state simulated intestinal fluid (FaSSIF); type: physicochemical; settings: FaSSIF, pH 6.5, fassif, kinetic from dmso stock, FaSSIF pH 6.5, 300 µM sample solution, room temperature
Outline: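 Compound from 10.0 mM DMSO stock added to FaSSIF (phosphate/NaCl buffer, pH 6.5) at 300 µM nominal, shaken 1 h at room temperature, 1000 rpm. After centrifugation, supernatant concentration quantified by LC-MS/MS.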

[3] = system: Fatty Acid Synthase (FASN) gene; assay: Inhibition of FASN gene expression (qPCR) in Huh-7 cells; type: cell-based, human; settings: Homo sapiens, Huh-7, 16 h, Huh-7 cells, starvation medium, 16 hours, qPCR, read-out: FASN IC50
Outline: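 IC50 derived by four-parameter fit of FASN expression inhibition versus DMSO, measured by RT-qPCR. Compound exposure lasted 16 h at five 3-fold concentrations from 3000 nM, applied to Huh-7 cells in sterol-depleting medium with 5% LPDS, 2 µM lovastatin and 10 µM mevalonate.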

SMILES	IC50 (SREBP pathway)	half-life at 1 µM [1]	solubility at 1 h [2]	IC50 ([3]; numeric value)	IC50 ([3]; class symbols)
C[C@H](CCCC(C)(C)O)[C@H]1CC[C@@]2(C)C3=C(CC[C@]12C)[C@@]1(C)CC[C@H](O)C(C)(C)[C@@H]1CC3 [Comparative compound 1, reference compound]	0.293 µM	0.131 h	105 µM (≈ 46.7 µg/mL)	959 nM	–
COc1ccccc1C(O)CCC[C@@H](C)[C@H]1CC[C@H]2C3=C(F)C[C@H]4[C@@H](O)[C@@H](O)CC[C@]4(C)[C@H]3CC[C@]12C (stereo partly drawn) [Compound 38, (1R,3aR,5aR,6R,7S,9aR,9bR,11aR)-4-fluoro-1-[(2R)-6-hydroxy-6-(2-methoxyphenyl)hexan-2-yl]-9a,11a-dimethyl-2,3,3a,5,5a,6,7,8,9,9a,9b,10,11,11a-tetradecahydro-1H-cyclopenta[1,2-a]phenanthrene-6,7-diol]	0.11 µM	0.203 h	184 µM (≈ 94.8 µg/mL)	–	–
COc1cccc(C(O)CCC[C@@H](C)[C@H]2CC[C@H]3[C@H]4[C@H](CC[C@]23C)[C@@]2(C)CC[C@H](O)[C@H](O)[C@@H]2CC4(F)F)c1 (stereo partly drawn) [Compound 39, (1R,3aS,3bS,5aR,6R,7S,9aR,9bS,11aR)-4,4-difluoro-1-[(2R)-6-hydroxy-6-(3-methoxyphenyl)hexan-2-yl]-9a,11a-dimethylhexadecahydro-1H-cyclopenta[1,2-a]phenanthrene-6,7-diol]	0.19 µM	1.95 h	177 µM (≈ 94.6 µg/mL)	–	–
C[C@H](CCCC(O)c1c(F)cccc1F)[C@H]1CC[C@H]2C3=C(F)C[C@H]4[C@@H](O)[C@@H](O)CC[C@]4(C)[C@H]3CC[C@]12C (stereo partly drawn) [Compound 21, (1R,3aR,5aR,6R,7S,9aR,9bR,11aR)-1-[(2R)-6-(2,6-difluorophenyl)-6-hydroxyhexan-2-yl]-4-fluoro-9a,11a-dimethyl-2,3,3a,5,5a,6,7,8,9,9a,9b,10,11,11a-tetradecahydro-1H-cyclopenta[1,2-a]phenanthrene-6,7-diol]	0.23 µM	2.69 h	246 µM (≈ 128 µg/mL)	–	–
COc1cccc([C@H](O)CCC[C@@H](C)[C@H]2CC[C@H]3[C@H]4[C@H](CC[C@]23C)[C@@]2(C)CC[C@H](O)[C@H](O)[C@@H]2CC4(F)F)c1OC [Compound 71, (1R,3aS,3bS,5aR,6R,7S,9aR,9bS,11aR)-1-[(2R,6R)-6-(2,3-dimethoxyphenyl)-6-hydroxyhexan-2-yl]-4,4-difluoro-9a,11a-dimethylhexadecahydro-1H-cyclopenta[1,2-a]phenanthrene-6,7-diol]	0.083 µM	1.05 h	–	–	< 200 nM
C[C@H](CCCC(O)c1ccccc1F)[C@H]1CC[C@H]2[C@H]3[C@H](CC[C@]12C)[C@@]1(C)CC[C@H](O)C(=O)[C@@H]1CC3(F)F (stereo partly drawn) [Compound 11, (1R,3aS,3bS,5aR,7S,9aR,9bS,11aR)-4,4-difluoro-1-[(2R)-6-(2-fluorophenyl)-6-hydroxyhexan-2-yl]-7-hydroxy-9a,11a-dimethylhexadecahydro-1H-cyclopenta[1,2-a]phenanthren-6-one]	0.19 µM	0.819 h	–	–	200 to 500 nM
C[C@H](CCCC(O)c1cccc(OC(F)(F)F)c1)[C@H]1CC[C@H]2[C@H]3[C@H](CC[C@]12C)[C@@]1(C)CC[C@H](O)[C@H](O)[C@@H]1CC3(F)F (stereo partly drawn) [Compound 84, (1R,3aS,3bS,5aR,6R,7S,9aR,9bS,11aR)-4,4-difluoro-1-[(2R)-6-hydroxy-6-{3-[(trifluoromethyl)oxy]phenyl}hexan-2-yl]-9a,11a-dimethylhexadecahydro-1H-cyclopenta[1,2-a]phenanthrene-6,7-diol]	0.204 µM	> 3.08 h	–	–	200 to 500 nM
C[C@H](CCCC(O)c1cccc2c1OC(F)(F)O2)[C@H]1CC[C@H]2[C@H]3[C@H](CC[C@]12C)[C@@]1(C)CC[C@H](O)[C@H](O)[C@@H]1CC3(F)F (stereo partly drawn) [Compound 77, (1R,3aS,3bS,5aR,6R,7S,9aR,9bS,11aR)-1-[(2R)-6-(2,2-difluorobenzo[d][1,3]dioxol-4-yl)-6-hydroxyhexan-2-yl]-4,4-difluoro-9a,11a-dimethylhexadecahydro-1H-cyclopenta[1,2-a]phenanthrene-6,7-diol]	0.17 µM	> 3.08 h	–	–	< 200 nM
COc1ccc(C(O)CCC[C@@H](C)[C@H]2CC[C@H]3[C@H]4[C@H](CC[C@]23C)[C@@]2(C)CC[C@H](O)[C@H](O)[C@@H]2CC4(F)F)cc1 (stereo partly drawn) [Compound 50, (1R,3aS,3bS,5aR,6R,7S,9aR,9bS,11aR)-4,4-difluoro-1-[(2R)-6-(4-methoxyphenyl)-6-hydroxyhexan-2-yl]-9a,11a-dimethylhexadecahydro-1H-cyclopenta[1,2-a]phenanthrene-6,7-diol]	0.188 µM	1.8 h	248 µM (≈ 132 µg/mL)	–	–
COc1c(F)cccc1C(O)CCC[C@@H](C)[C@H]1CC[C@H]2[C@H]3[C@H](CC[C@]12C)[C@@]1(C)CC[C@H](O)[C@H](O)[C@@H]1CC3(F)F (stereo partly drawn) [Compound 46, (1R,3aS,3bS,5aR,6R,7S,9aR,9bS,11aR)-4,4-difluoro-1-[(2R)-6-(2-methoxy-3-fluorophenyl)-6-hydroxyhexan-2-yl]-9a,11a-dimethylhexadecahydro-1H-cyclopenta[1,2-a]phenanthrene-6,7-diol]	0.07 µM	2.6 h	277 µM (≈ 153 µg/mL)	–	–
COc1cccc(C(O)CCC[C@@H](C)[C@H]2CC[C@H]3C4=C(F)C[C@H]5[C@@H](O)[C@@H](O)CC[C@]5(C)[C@H]4CC[C@]23C)c1F (stereo partly drawn) [Compound 64, (1R,3aR,5aR,6R,7S,9aR,9bR,11aR)-4-fluoro-1-[(2R)-6-(2-fluoro-3-methoxyphenyl)-6-hydroxyhexan-2-yl]-9a,11a-dimethyl-2,3,3a,5,5a,6,7,8,9,9a,9b,10,11,11a-tetradecahydro-1H-cyclopenta[1,2-a]phenanthrene-6,7-diol]	0.318 µM	1.16 h	–	–	< 200 nM
C[C@H](CCCC(O)c1cccc(F)c1)[C@H]1CC[C@H]2[C@H]3[C@H](CC[C@]12C)[C@@]1(C)CC[C@H](O)[C@H](O)[C@@H]1CC3(F)F (stereo partly drawn) [Compound 44, (1R,3aS,3bS,5aR,6R,7S,9aR,9bS,11aR)-4,4-difluoro-1-[(2R)-6-(3-fluorophenyl)-6-hydroxyhexan-2-yl]-9a,11a-dimethylhexadecahydro-1H-cyclopenta[1,2-a]phenanthrene-6,7-diol]	0.152 µM	> 3.1 h	225 µM (≈ 118 µg/mL)	–	–
C[C@H](CCCC(O)c1ccccc1OC(F)(F)F)[C@H]1CC[C@H]2[C@H]3[C@H](CC[C@]12C)[C@@]1(C)CC[C@H](O)C(=O)[C@@H]1CC3(F)F (stereo partly drawn) [Compound 97, (1R,3aS,3bS,5aR,7S,9aR,9bS,11aR)-4,4-difluoro-7-hydroxy-1-[(2R)-6-hydroxy-6-{2-[(trifluoromethyl)oxy]phenyl}hexan-2-yl]-9a,11a-dimethylhexadecahydro-1H-cyclopenta[1,2-a]phenanthren-6-one]	0.0741 µM	1.78 h	–	–	< 200 nM
C[C@H](CCCC(O)c1ccccc1OC(F)(F)F)[C@H]1CC[C@H]2[C@H]3[C@H](CC[C@]12C)[C@@]1(C)CC[C@H](O)[C@H](O)[C@@H]1CC3(F)F (stereo partly drawn) [Compound 1, (1R,3aS,3bS,5aR,6R,7S,9aR,9bS,11aR)-4,4-difluoro-1-[(2R)-6-hydroxy-6-{2-[(trifluoromethyl)oxy]phenyl}hexan-2-yl]-9a,11a-dimethylhexadecahydro-1H-cyclopenta[1,2-a]phenanthrene-6,7-diol]	0.33 µM	2.78 h	140 µM (≈ 82.4 µg/mL)	–	–
COc1c(F)cccc1C(O)CCC[C@@H](C)[C@H]1CC[C@H]2[C@@H]3CC[C@H]4[C@@H](O)[C@@H](O)CC[C@]4(C)[C@H]3CC[C@]12C (stereo partly drawn) [Compound 7, 24-[(3-Fluoro-2-methoxyphenyl)(hydroxy)methyl]-5α-cholane-3β,4β-diol]	0.07 µM	0.624 h	–	–	200 to 500 nM
